# From patent US11634393B2, “Substituted tolyl fungicides” (FMC CORPORATION, priority 2018, dated 2023)
# Assays:
# Phakopsora pachyrhizi = experiment: Test D: Asian soybean rust, spray on soybean seedlings, disease control rating; type: in vivo; conditions: 100 = 100% disease control, 0 = no disease control relative to the controls
# Excerpt: (§1) General protocol for preparing test suspensions for Tests A-F: the test compounds were first dissolved in acetone in an amount equal to 3% of the final volume and then suspended at the desired concentration (in ppm) in acetone and purified water (50/50 mix by volume) containing 250 ppm of the surfactant PEG400 (polyhydric alcohol esters). The resulting test suspensions were then used in Tests A-F.
# The test solution was sprayed to the point of run-off on soybean seedlings. The following day the seedlings were inoculated with a spore suspension of Phakopsora pachyrhizi (the causal agent of Asian soybean rust) and incubated in a saturated atmosphere at 22° C. for 24 h and then moved to a growth chamber at 22° C. for 8 days, after which time visual disease ratings were made.
# (§2) A rating of 100 indicates 100% disease control and a rating of 0 indicates no disease control (relative to the controls). A dash (-) indicates the compound was not tested.
# [1] = system: Puccinia recondita f. sp. tritici; experiment: Test B: wheat leaf rust, spray on wheat seedlings, disease control rating; type: in vivo; conditions: 100 = 100% disease control, 0 = no disease control relative to the controls
# Excerpt: as §1
# The test solution was sprayed to the point of run-off on wheat seedlings. The following day the seedlings were inoculated with a spore suspension of Puccinia recondita f. sp. tritici (the causal agent of wheat leaf rust) and incubated in a saturated atmosphere at 20° C. for 24 h, and then moved to a growth chamber at 20° C. for 7 days, after which time disease ratings were made.
# as §2
# [2] = Phakopsora pachyrhizi, 216 h, Rate 10 ppm
# [3] = Puccinia recondita, 192 h, Rate 10 ppm
SMILES,melting point [°C],pest or weed control at 10 ppm (Phakopsora pachyrhizi; [2]) [%],"pest or weed control at 10 ppm [1, 3] [%]",also measured
"COC(=O)NCc1cc(-c2ccn(-c3c(F)cccc3F)n2)ccc1C [Compound 4, methyl N-[[5-[1-(2,6-difluorophenyl)-1H-pyrazol-3-yl]-2-methylphenyl]-methyl]carbamate]",142 to 143,100,90,
COC(=O)NCc1cc(-c2cnn(-c3c(F)cc(Br)cc3F)n2)ccc1C [Compound 114],136 to 140,100,100,
COC(=O)NCc1cc(-c2cnn(-c3c(F)cccc3F)n2)ccc1C [Compound 112],122 to 126,,,
COC(=O)NCc1cc(-c2ncn(-c3c(F)cc(N)cc3F)n2)ccc1C [Compound 106],136 to 140,,,
"COC(=O)NCc1cc(-c2cnn(-c3c(F)cc(C(C)C)cc3F)n2)ccc1C [Compound 108, methyl N-[[5-[2-[2,6-difluoro-4-(1-methylethyl)phenyl]-2H-1,2,3-triazol-4-yl]-2-methylphenyl]methyl]carbamate]",102 to 106,,,"pest or weed control at 2 ppm (Phakopsora pachyrhizi; Phakopsora pachyrhizi, 216 h, Rate 2 ppm): 100%; pest or weed control at 2 ppm ([1]; Puccinia recondita, 192 h, Rate 2 ppm): 100%"
COC(=O)NCc1cc(-c2ccn(-c3c(F)cc(C)cc3F)n2)ccc1C [Compound 30],130 to 131,100,98,
"COC(=O)NCc1cc(-c2ccn(-c3c(F)cc(C(C)=O)cc3F)n2)ccc1C [Compound 68, methyl N-[[5-[1-(4-acetyl-2,6-difluorophenyl)-1H-pyrazol-3-yl]-2-methylphenyl]methyl]carbamate]",,71,74,
"COC(=O)NCc1cc(-c2ccn(-c3c(F)cc(I)cc3F)n2)ccc1C [Compound 8, methyl N-[[5-[1-(2,6-difluoro-4-iodophenyl)-1H-pyrazol-3-yl]-2-methylphenyl]methyl]carbamate]",,100,100,
COC(=O)NCc1cc(-c2ccn(-c3c(C)cc(OC)cc3C)n2)ccc1C [Compound 40],,99,0,
COC(=O)NCc1cc(-c2ccn(-c3c(F)cc(C(OC)C(C)=O)cc3F)n2)ccc1C (stereo not shown) [Compound 76],,,,Test D disease control rating (Phakopsora pachyrhizi; Rate 10 ppm): 100%; Test B disease control rating ([1]; Rate 10 ppm): 68%
COC(=O)NCc1cc(-c2ccn(-c3c(F)cccc3Br)n2)ccc1C [Compound 46],,100,68,

# Continued, in another order:
melting point [°C],SMILES,pest or weed control at 10 ppm (Phakopsora pachyrhizi; [2]) [%],"pest or weed control at 10 ppm [1, 3] [%]",also measured
138 to 142,COC(=O)NCc1cc(-c2cnn(-c3c(F)cc(C(F)(F)F)cc3F)n2)ccc1C [Compound 141],100,99,
166 to 170,COC(=O)NCc1cc(-c2cn(-c3c(F)cc(I)cc3F)nn2)ccc1C [Compound 125],0,68,
110 to 114,COC(=O)NCc1cc(-c2cn(-c3c(C)cc(OC)cc3C)nn2)ccc1C [Compound 124],0,0,
146 to 150,COC(=O)NCc1cc(-c2cn(-c3c(F)cc(OC)cc3F)nn2)ccc1C [Compound 130],0,68,
160 to 164,COC(=O)NCc1cc(-c2cn(-c3c(F)cc(Br)cc3F)nn2)ccc1C [Compound 126],0,57,
158 to 162,COC(=O)NCc1cc(-c2cn(-c3c(Br)cc(OC)cc3[N+](=O)[O-])nn2)ccc1C [Compound 129],0,0,
194 to 198,"COC(=O)NCc1cc(-c2cn(-c3c(F)cc(N)cc3F)nn2)ccc1C [Compound 131, methyl N-[[5-[1-(4-amino-2,6-difluorophenyl)-1H-1,2,3-triazol-4-yl]-2-methylphenyl]methyl]carbamate]",,,
